Measured values from article PMC10803328 (Scientific Reports, 2024).
Several values for one entry are separate records, joined by “and”; a condition that tells them apart may be missing. Equal entries are not always repeated. Entries after “also recorded” stand apart in the source; their conditions may differ.

Key:
[1] = Plasma free fraction by ultrafiltration, pooled human standard plasma; assay type: in vitro ADME
Protocol: (§1) In vitro stability was calculated by dividing the relative composition of the blood or brain homogenate determined with radio-HPLC by the initial radiochemical purity of the radioligand. […] The mixture was incubated at room temperature for 10 min and then processed exactly as described previously. The ultrafiltration components that contained high radioactivity were allowed time for radioactivity decay to within the optimal range of the γ-counter before they were counted again.

[2] = Lipophilicity measurement (logD7.4) by partition; assay type: physicochemical; conditions: n = 6
Protocol: Aliquots were distributed to 16 borosilicate disposable culture tubes (13 × 100 mm). The tubes were divided into two groups of […]. […] Extraction was performed by vortexing the tubes with their content for 1 min. The tubes were then centrifuged for 1 min. The organic and the aqueous phases were separated, and each phase was then sampled (50 µL) and counted separately in a well-type γ-counter (model 1480 Wizard; Perkin-Elmer) with an electronic window set between 360 and 1800 keV. The remaining two tubes, containing the radioactivity in buffer, served as stability measures for the radioligand. […] The aqueous phases were injected onto the HPLC. The resulting radiochromatograms provided correction factors for the γ-counter counts, of the aqueous samples, to determine parent radioligand radioactivity only (corrected radioactivity)[32]. LogD7.4octanol and logD7.4cyclohexane were each calculated as log((cpm in organic phase)/(corrected cpm in aqueous phase)).

[3] = test system: PSAM^4-GlyR; assay: PET imaging and arterial plasma radiometabolite analysis in monkey transduced with PSAM^4-GlyR in the left amygdala; assay type: in vivo, rhesus monkey
Protocol: All studies were conducted in accordance with “Animal Research: Reporting of In Vivo Experiments” guidelines as well as Guidelines for the Care and Use of Laboratory Animals, 8th Edition, and were approved by the National Institute of Mental Health Animal Care and Use Committee. A lentivirus carrying an PSAM^4 expressed under a human synapsin promoter (Lenti-hSyn-PSAM^4-GlyR) was injected into the left amygdala of a single rhesus macaque (11-year-old male). 14 × 20 μL of virus was injected at 1.0 μL/min speed. The virus titer was measured at 1 × 10^9 i.u./mL. The surgery was performed under aseptic conditions in a fully equipped operating suite.
(§2) All PET imaging studies were performed with a Mediso LFER 150 preclinical scanner (nanoScan PET/CT). Brain and brain region radioactivity uptake was expressed by standardized uptake value (SUV) which normalizes for injected radioactivity and monkey body weight, as follows: SUV = [(% injected dose per g tissue) × body weight in g]/100.
Two male rhesus monkeys (macaca mulatta; 10.0 and 8.6 kg) underwent PET scanning. Each monkey was initially immobilized with ketamine (10 mg/kg, i.m.) and then maintained under anesthesia with 1.5% isoflurane. For each monkey, a baseline scan was performed for 120 min. […] Electrocardiogram, body temperature, heart, and respiration rates were monitored throughout the scans.
Total radioactivity concentrations in sampled arterial whole blood and plasma were measured in a γ-counter throughout the 90-min scanning period.
PET images were reconstructed using Fourier rebinding plus two-dimensional filtered back-projection with attenuation and scatter correction. Images were co-registered to a standardized monkey MRI template using the FMRIB Software Library (FSL; Oxford, UK). Thirty-four predefined brain regions of interest from the template were applied to the co-registered PET image to obtain regional, decay-corrected, time-activity curves.

[4] = PET imaging of brain in wild-type rats; assay type: in vivo, rat; conditions: i.v.
Protocol: as §2
Animals were maintained under anesthesia with 1.5% isoflurane throughout the scan. Radioligand was injected intravenously via a penile vein catheter followed by PET imaging for 90 min. Brain uptake was expressed as standardized uptake value (SUV, concentration normalized by injected activity and body weight) and compared between the wild-type and self-blocked conditions.

[5] = Ex vivo measurements of radioactivity in rat brain and blood 100 min after i.v. injection
Protocol: Other experimental parameters that governed this study are listed in Supporting Information, Table S1. […] The rats were sacrificed via thoracotomy 100 min after radioligand injection. Anticoagulated blood was drawn from the myocardium followed by decapitation and harvesting of the brain. Each brain was removed, weighed, and immediately subjected to radio analysis after counting its concomitant radioactivity. Whole blood samples were removed and centrifuged to separate the plasma. Whole blood (300 µL each) and plasma samples (300 µL each) were also quantified for radioactivity in an automatic γ-counter (model 2480 Wizard 2; Perkin-Elmer) with an electronic window set at 360–1800 keV (counting efficiency, 51.84%). Briefly, plasma samples (~ 450 µL) were deproteinated with acetonitrile treatment (720 µL). The radioactivity of various plasma and brain tissues were counted in the γ-counter. Brain tissues were then homogenized in acetonitrile (1.0 mL) using a handheld tissue Tearor (model 985-370; BioSpec Products Inc; Bartlesville, OK), followed by a second homogenization in water (1.0 mL). The homogenates were counted in the γ-counter to calculate the percentage recovery of radioactivity in the acetonitrile extracts. Corrections of all tissue assays for physical decay were made with a half-life of 20.385 min. The homogenates were then centrifuged at 10,000g for 2 min. The clear supernatants were injected onto the HPLC column through nylon filters. For each sample, radioactivity in the resulting precipitate was used to calculate the percent recovery of activity into the acetonitrile supernatant.

[6] = test system: efflux transporters (P-gp and BCRP); assay: PET imaging in wild-type and dual efflux transporter knockout mice; assay type: in vivo, mouse
Protocol: as §2
Radioligand was injected intravenously via a tail vein catheter followed by PET imaging for 90 min. Whole brain uptake in SUV was compared between wild type and knockout mice.

[7] = Plasma free fraction by ultrafiltration, rat plasma; assay type: in vitro ADME; conditions: fresh rat plasma, read-out: rat plasma free fraction (fP)
Protocol: as §1

[8] = Rat-3, blocked with uPSEM792, 100 min
[9] = Rat-3, blocked with uPSEM792 i.v. 15 min before radioligand, 100 min
[10] = baseline rats (Rat-1, Rat-2), 100 min
[11] = baseline rats (Rat-1, Rat-2), 100 min after injection
[12] = rat, ex vivo, 100 min after i.v. injection, HPLC

Compound: [11CH3]n1c(=O)cnc2cc3c(cc21)C1CNCC3C1 (stereo not shown) [[^11C]uPSEM792]
- fraction unbound at 10 min, 2.6 MBq/mL [1]: 0.876
- ΔLogD7.4 (logD7.4(octanol) − logD7.4(cyclohexane)) [2]: 2.45 ± 0.03
- difference in uptake of radioactivity between left (PSAM^4-GlyR) and right amygdala ([3]; PSAM^4-GlyR monkey, PET): No significant difference
- evidence of PSAM^4-GlyR specific binding in left amygdala ([3]; PSAM^4-GlyR monkey, PET, compartmental modeling): do not reveal any evidence of specific binding; also recorded: no evidence was obtained for PSAM^4-GlyR specific binding
- time at which radiometabolites accounted for 50% of radioactivity in plasma ([3]; male, rhesus monkey, in vivo): 30 min
- peak whole brain radioactivity uptake ([3]; monkey transduced in the left amygdala with PSAM^4-GlyR, i.v., PET): ~ 0.8 SUV
- peak whole brain radioactivity uptake [4]: ~ 0.6 SUV and < 0.6 SUV
- time of peak whole brain radioactivity [4]: 5 min
- Ex vivo brain [5, 8]: 0.72 nM
- Ex vivo brain (SUV) [5, 8]: 0.401 SUV
- Ex vivo plasma parent (SUV) [5, 8]: 0.064 SUV
- Ex vivo whole blood (SUV) [5, 8]: 0.163 SUV
- HPLC Composition (%), ex vivo brain [5, 9]: 68.3%
- HPLC Composition (%), ex vivo plasma [5, 9]: 37.1%
- Ex vivo brain [5, 10]: 0.68 nM and 0.83 nM
- Ex vivo brain (SUV) [5, 10]: 0.407 SUV and 0.468 SUV
- Ex vivo plasma parent (SUV) [5, 10]: 0.063 SUV and 0.064 SUV
- Ex vivo whole blood (SUV) [5, 10]: 0.141 SUV and 0.163 SUV
- HPLC Composition (%), ex vivo brain [5, 11]: 78.3% and 75.6%
- HPLC Composition (%), ex vivo plasma [5, 11]: 43.0% and 37.9%
- total radioactivity concentration in rat brain ([5]; ex vivo, 100 min after i.v. injection): ~ 0.4 SUV
- Kp at 100 min ([5]; male, brain and plasma, intravenous, rat, 100 min, read-out: fold lower concentration of unchanged radioligand in plasma than in brain): 6.7
- concentration of unchanged radioligand in plasma ([5]; rat, 100 min, n = 3): 0.064 ± 0.001 SUV
- unchanged radioligand as share of radioactivity in brain [5, 12]: 75.6%
- unchanged radioligand fraction of all radioactivity in plasma [5, 12]: 37.9%
- substrate for efflux transporters in vivo ([6]; dual P-gp and BCRP knockout vs wild-type mice): substrate for efflux transporters in vivo
- early peak brain radioactivity uptake ([6]; dual efflux transporter (P-gp and BCRP) knockout mice, i.v.): ~ 0.7 SUV
- fraction unbound at 10 min, 2.6 MBq/mL [7]: 0.898
